“And” between values parts separate entries of the source, which are not always exact repeats. Identical values can stand only once.
Tests used:
[1] = test system: ZBP1; experiment: ZBP1 mRNA in PVECs cocultured with neutrophils, RT-PCR (DAPT, NDI, peptides 1–5); assay type: cell-based, mouse; set-up: key to ZBP1 mRNA expression (Figure 4E): fold change in mRNA vs sham group; settings: for ZBP1 mRNA expression (Figure 4E): 10 μM peptide, relative mRNA, β-actin normalized, individual replicates
Procedure: Immortalized mouse (Mus musculus) lung endothelial cells with polyoma middle T (PVECs) were purchased from Applied Biological Materials Inc. (ABM) and grown in 1:1 PriGrow VI Medium and PriGrow IV Medium (ABM).
(§1) Wild-type PVECs (5 × 10^5) were cocultured with sorted DLL4^+ neutrophils (5 × 10^5) or DLL4^– neutrophils (5 × 10^5) and then treated with different dosages of peptides or 10 μM DAPT (Thermo Fisher Scientific), 10 μM NDI (GenScript), or 10 μM NDI scramble (GenScript). Notch1-knockdown PVECs (5 × 10^5) were cocultured with sorted DLL4^+ neutrophils (5 × 10^5). After 16 hours, neutrophils were washed away by PBS, and PVECs were collected for further experiments. Cell viability was evaluated by propidium iodide staining using the FITC Annexin V Apoptosis Detection Kit I (catalog 556547, BD Pharmingen). Cell death was quantified as the percentage of propidium iodide–positive cells by flow cytometry.
mRNA was extracted from lung tissues with TRIzol reagent (Invitrogen, Thermo Fisher Scientific). An equal amount ([…]) of mRNA was reverse-transcribed into cDNA using the reverse transcriptase enzyme (Invitrogen, Thermo Fisher Scientific). qPCR was performed from the diluted cDNA templates with forward and reverse primers (Supplemental Table 4) and SYBR Green PCR Master Mix (Applied Biosystems, Thermo Fisher Scientific) using an Applied Biosystems 7300 real-time PCR machine. Mouse β-actin served as an internal control gene for normalization. Relative expression of mRNA was represented as fold change in comparison with the sham group.

[2] = test system: p-MLKL; experiment: p-MLKL/MLKL in lungs of CLP mice, Western blot; assay type: in vivo, mouse; settings: 10 mg/kg NDI, 20 h; for lung p-MLKL/MLKL (Figure 5F): individual mice, 10 mg/kg
Procedure: Sepsis was induced in mice by cecal ligation and puncture (CLP) as described previously ([45], [46]). Mice were anesthetized with isoflurane to a surgical plane and placed in a supine position. CLP was performed through a midline laparotomy. The abdomen was shaved and disinfected. Through a 2 cm midline incision, the cecum was exposed and then ligated with a 4-0 silk suture 1 cm proximal from the distal cecal extremity. For 20-hour CLP experiments, the cecum was punctured twice with a 22-gauge needle. A small amount of cecal content was extruded through both holes, and the ligated cecum was returned to the peritoneal cavity. The wound was closed in layers. For 10-day sepsis survival studies, the cecum was punctured once with a 22-gauge needle. A small amount of cecal content was extruded. Mice were allocated to the vehicle and adoptive transfer of DLL4^+ neutrophils or DLL4^– neutrophils groups. Adoptive transfer mice received a retro-orbital injection of 1 × 10^6 cells per mouse DLL4^+ neutrophils or DLL4^– neutrophils in […] phosphate-buffered saline (PBS) immediately after abdominal closure in both the 20-hour experiments and the survival study. Vehicle groups received an equivalent volume of PBS, while treatment groups received NDI 10 mg/kg in […] PBS via retro-orbital injection after CLP. This dose was chosen primarily on the basis of our laboratory’s prior experience, we have consistently used this dose in mouse CLP models with reproducible efficacy and without observable toxicity ([39], [44]). Sham-operated animals underwent a laparotomy without CLP. After closure, the mice received a subcutaneous injection of 0.5 mL of normal saline to overcome surgery-induced dehydration. […]
PVECs and lung tissue were collected in previous steps. Whole-cell proteins were extracted, and the protein concentration was measured using an ABC protein assay kit (catalog 5000002, Bio-Rad). […] Bands were detected using an Odyssey FC Dual-Mode Imaging system 2800 (LI-COR).

[3] = test system: c-GSDMD; experiment: c/t GSDMD (pyroptosis) in PVECs cocultured with neutrophils, Western blot; assay type: cell-based, mouse; settings: for c/t GSDMD (Figure 4G): 10 μM peptide, 16 h, individual replicates
Procedure: as §1
PVECs and lung tissue were collected in previous steps. Whole-cell proteins were extracted, and the protein concentration was measured using an ABC protein assay kit (catalog 5000002, Bio-Rad). Proteins were separated using NuPAGE 4%–12% Bis-Tris gels (Invitrogen), transferred to PVDF membranes, and immunoblotted with the antibodies indicated in the figure legends according to the manufacturer’s recommendations. The ZBP1 antibody (catalog PA5-20455; 1:1,000) used in this study was obtained from Thermo Fisher Scientific, and the c-GSDMD (catalog 10137S; 1:250), GSDMD (catalog 39754S; 1:1000), c-caspase-3 (catalog 9661L; 1:250), caspase-3 (catalog 9662S; 1:1,000), p-MLKL (catalog 37333S; 1:250), MLKL (catalog 37705S; 1:1,000), N1ICD (c-Notch1) (catalog 4147S; 1:250), and Notch1 (catalog 3608S; 1:1,000) antibodies were obtained from Cell Signaling Technology. GAPDH (catalog 60004-1-Ig; 1:10,000) and β-actin (catalog A5441, Sigma-Aldrich; 1:5,000) were obtained from ProteinTech. After the blots were incubated with primary antibodies, the membranes were washed 3 times, and the blots were subsequently incubated with the corresponding fluorescent secondary antibody (LI-COR). Bands were detected using an Odyssey FC Dual-Mode Imaging system 2800 (LI-COR).

[4] = 10 μM NDI, DLL4^+ neutrophil coculture

With ECAGSPCHNGGTCEDGI [NDI] the “effect on ZBP1 mRNA” value [1, 4] was “significantly attenuated by NDI treatment”, the “ZBP1 mRNA expression (Figure 4E)” value ([1]; DLL4^+ neutrophil coculture, 16 h) was 1.415 and 1.669 and 3.8174 and 1.677 and 1.56 and 2.849 and 9.163 and 6.321 and 1.561 and 1.421 and 1.212 and 1.283 and 1.413 and 1.3501 and the “ZBP1 mRNA expression (Figure 4E)” value ([1]; DLL4^– neutrophil coculture, 16 h) was 1.952 and 2.343 and 4.227 and 9.382 and 4.404 and 4.151 and 12.0095 and 11.4783 and 1.027 and 3.606 and 3.156 and 1.889 and 1.85 and 3.13. The “effect on ZBP1 mRNA” value ([1]; PVECs cocultured with DLL4^+ neutrophils, varying concentrations of peptide, 16 h, n=10/group) was “significantly reduced ZBP1 expression”, the “inhibition of DLL4^+ neutrophil–induced PANoptosis in PVECs, by reduced ZBP1 expression” value ([1]; among the tested peptides) was “most effectively inhibited” and the “effective concentration for ZBP1 inhibition” value ([1]; dose-response, PVECs cocultured with DLL4^+ neutrophils) was 10 µM. The “lung p-MLKL/MLKL (Figure 5F)” value ([2]; DLL4^+ neutrophils + CLP) was 1.846 and 1.579 and 1.945 and 1.685 and 1.856 and 1.651 and 0.9594, the “effect on lung p-MLKL” value ([2]; DLL4^+ neutrophils/sepsis) was “attenuated the expression/activation” and the “lung p-MLKL/MLKL (Figure 5F)” value ([2]; DLL4^– neutrophils + CLP) was 1.556 and 0.2214 and 0.5541 and 0.7582 and 0.5214 and 0.9855. For the same sequence, the “effect on c-GSDMD” value [3, 4] was “significantly reduced these markers of PANoptosis”, the “c/t GSDMD (Figure 4G)” value ([3]; DLL4^+ neutrophil coculture) was 1.2879 and 0.9868 and 1.126 and 1.624 and 1.978 and 2.103 and 0.1622 and 0.328 and 1.184 and the “c/t GSDMD (Figure 4G)” value ([3]; DLL4^– neutrophil coculture) was 0.692 and 1.126 and 1.001 and 1.013 and 0.9854 and 1.021.
